From paper PMC10969742, “A Phase I Study of the Oral Dual-Acting Pan-PI3K/mTOR Inhibitor Bimiralisib in Patients with Advanced Solid Tumors” (Cancers, 2024)
Where two headings read alike, the source gives them in different places.

Assay: Plasma pharmacokinetics of bimiralisib, non-compartmental analysis (LC-MS)
Format: in vivo, human
Settings: for AUC(0-t) / Cmax / Tmax: human, plasma, oral; for Cmax: read-out: Cmax Mean (%CV); for Tmax: read-out: Tmax Median, (Range)
Procedure: Blood samples were collected to enable full PK profiling of bimiralisib. The PK samples were taken pre-dose and at 0.5, 1, 2, 4, 6, 8, and 24 h post-dosing in the three schedules, with additional timepoints depending on the schedule (48 h in the continuous schedule, 12, 16, and 48 h in intermittent schedule A and 12, 16, and 72 h in intermittent schedule B). PK sampling was repeated on cycle 1 Day 8 (continuous schedule: pre-dose and 1 h post-dose; intermittent schedules A and B: pre-dose and 0.5, 1, 2, 4, 6, 8, and 24 h post-dose), on cycle 1 Day 15 (continuous schedule: pre-dose and 0.5, 1, 2, 4, 6 and 8 h post-dose; intermittent schedules A and B: pre-dose and 4 h post-dose), and on cycle 2 Day 1 (continuous dosing: pre-dose and 1 h post-dose). Samples were sent to a central laboratory for analysis using liquid-chromatography mass spectrometry. The pharmacokinetics of bimiralisib were determined by non-compartmental analysis. Area under the concentration vs. time curve (AUC) was calculated using the linear up log down trapezoidal method. Accumulation was calculated as the ratio of cycle 1 on Day 15 AUC0–8h versus cycle 1 on Day -3 AUC0–8h.

[1] = 80 mg, Continuous Dosing, 80 mg, Day 15, 7 patients
[2] = 80 mg, Continuous Dosing, 80 mg, Day -3, 11 patients
[3] = 80 mg, Intermittent Dose Schedule A, 80 mg, Day 8, 3 patients
[4] = 80 mg, Intermittent Dose Schedule A, 80 mg, Day -3, 4 patients
[5] = 80 mg, Intermittent Dose Schedule B, 80 mg, Day 1, 4 patients
[6] = 80 mg, Intermittent Dose Schedule B, 80 mg, Day 8, 4 patients
[7] = 100 mg, Continuous Dosing, 100 mg, Day 1, 5 patients
[8] = 100 mg, Continuous Dosing, 100 mg, Day 15, 2 patients
[9] = 100 mg, Intermittent Dose Schedule A, 100 mg, Day -3, 4 patients
[10] = 100 mg, Intermittent Dose Schedule B, 100 mg, Day 1, 7 patients
[11] = 100 mg, Intermittent Dose Schedule B, 100 mg, Day 8, 6 patients
[12] = 120 mg, Continuous Dosing, 120 mg, Day 1, 5 patients
[13] = 120 mg, Continuous Dosing, 120 mg, Day 15, 1 patient
[14] = 120 mg, Intermittent Dose Schedule A, 120 mg, Day 8, 3 patients

For `Nc1cc(C(F)(F)F)c(-c2nc(N3CCOCC3)nc(N3CCOCC3)n2)cn1` [bimiralisib, 5-(4,6-Dimorpholino-1,3,5-triazin-2-yl)-4-(trifluoromethyl)pyridin-2-amine], the “Dose proportionality of concentration-time data” value (all dosing schedules, 80–200 mg) was “not proportional to doses”, the “Median half-life, calculated from accumulation” value (continuous schedule, range < 6–146 h) was 39.5 h and the “Median accumulation ratio (cycle 1 Day 15 AUC0–8h versus Day -3 AUC0–8h)” value (continuous schedule, range, <1.0–9.3) was 2.9. The AUC(0-t) (80 mg, Continuous Dosing, 80 mg, Day 15, 7 patients, read-out: AUC0–8 Geometric Mean (%CV)) was 4090 ng·h/mL, the Cmax [1] was 766 ng/mL and the Tmax [1] was 1 h. It also gave an AUC(0-t) (80 mg, Continuous Dosing, 80 mg, Day -3, 11 patients, read-out: AUC0–8 Geometric Mean (%CV)) of 1530 ng·h/mL, an AUC(0-t) (80 mg, Continuous Dosing, 80 mg, Day -3, 11 patients, read-out: AUC0–24 Geometric Mean (%CV)) of 4290 ng·h/mL and a Cmax [2] of 407 ng/mL. It also gave a Tmax [2] of 2 h, an AUC(0-t) (80 mg, Intermittent Dose Schedule A, 80 mg, Day 8, 3 patients, read-out: AUC0–8 Geometric Mean (%CV)) of 2350 ng·h/mL and a Cmax [3] of 614 ng/mL. The Tmax [3] was 1 h, the AUC(0-t) (80 mg, Intermittent Dose Schedule A, 80 mg, Day 8, n = 1, read-out: AUC0–24 Geometric Mean (%CV)) was 6740 ng·h/mL and the AUC(0-t) (80 mg, Intermittent Dose Schedule A, 80 mg, Day -3, 4 patients, read-out: AUC0–8 Geometric Mean (%CV)) was 1580 ng·h/mL. For the same compound, the AUC(0-t) (80 mg, Intermittent Dose Schedule A, 80 mg, Day -3, 4 patients, read-out: AUC0–24 Geometric Mean (%CV)) was 3540 ng·h/mL, the Cmax [4] was 410 ng/mL and the Tmax [4] was 1.5 h. The AUC(0-t) (80 mg, Intermittent Dose Schedule B, 80 mg, Day 1, 4 patients, read-out: AUC0–8 Geometric Mean (%CV)) was 1680 ng·h/mL, the AUC(0-t) (80 mg, Intermittent Dose Schedule B, 80 mg, Day 1, 4 patients, read-out: AUC0–24 Geometric Mean (%CV)) was 4000 ng·h/mL and the Cmax [5] was 341 ng/mL. It also gave a Tmax [5] of 3 h, an AUC(0-t) (80 mg, Intermittent Dose Schedule B, 80 mg, Day 8, 4 patients, read-out: AUC0–8 Geometric Mean (%CV)) of 2600 ng·h/mL and a Cmax [6] of 681 ng/mL. For the same compound, the Tmax [6] was 1.5 h, the AUC(0-t) (80 mg, Intermittent Dose Schedule B, 80 mg, Day 8, n = 3, read-out: AUC0–24 Geometric Mean (%CV)) was 6350 ng·h/mL and the AUC(0-t) (100 mg, Continuous Dosing, 100 mg, Day 1, 5 patients, read-out: AUC0–8 Geometric Mean (%CV)) was 1690 ng·h/mL. It also gave an AUC(0-t) (100 mg, Continuous Dosing, 100 mg, Day 1, 5 patients, read-out: AUC0–24 Geometric Mean (%CV)) of 4660 ng·h/mL, a Cmax [7] of 441 ng/mL and a Tmax [7] of 1.7 h. For the same compound, the AUC(0-t) (100 mg, Continuous Dosing, 100 mg, Day 15, 2 patients, read-out: AUC0–8 Geometric Mean (%CV)) was 5750 ng·h/mL, the Cmax [8] was 1110 ng/mL and the Tmax [8] was 2 h. The AUC(0-t) (100 mg, Intermittent Dose Schedule A, 100 mg, Day 8, 3 patients, read-out: AUC0–8 Geometric Mean (%CV)) was 3910 ng·h/mL, the Tmax (100 mg, Intermittent Dose Schedule A, 100 mg, Day 8, 3 patients) was 1 h and the AUC(0-t) (100 mg, Intermittent Dose Schedule A, 100 mg, Day 8, n = 2, read-out: AUC0–24 Geometric Mean (%CV)) was 12400 ng·h/mL. The AUC(0-t) (100 mg, Intermittent Dose Schedule A, 100 mg, Day -3, 4 patients, read-out: AUC0–8 Geometric Mean (%CV)) was 1970 ng·h/mL, the AUC(0-t) (100 mg, Intermittent Dose Schedule A, 100 mg, Day -3, 4 patients, read-out: AUC0–24 Geometric Mean (%CV)) was 4170 ng·h/mL and the Cmax [9] was 543 ng/mL. The Tmax [9] was 1 h, the AUC(0-t) (100 mg, Intermittent Dose Schedule B, 100 mg, Day 1, 7 patients, read-out: AUC0–8 Geometric Mean (%CV)) was 1920 ng·h/mL and the AUC(0-t) (100 mg, Intermittent Dose Schedule B, 100 mg, Day 1, 7 patients, read-out: AUC0–24 Geometric Mean (%CV)) was 4520 ng·h/mL. The Cmax [10] was 562 ng/mL, the Tmax [10] was 2 h and the AUC(0-t) (100 mg, Intermittent Dose Schedule B, 100 mg, Day 8, 6 patients, read-out: AUC0–8 Geometric Mean (%CV)) was 2880 ng·h/mL. The Cmax [11] was 714 ng/mL, the Tmax [11] was 1.5 h and the AUC(0-t) (100 mg, Intermittent Dose Schedule B, 100 mg, Day 8, n = 4, read-out: AUC0–24 Geometric Mean (%CV)) was 6200 ng·h/mL. It also gave an AUC(0-t) (120 mg, Continuous Dosing, 120 mg, Day 1, 5 patients, read-out: AUC0–8 Geometric Mean (%CV)) of 2990 ng·h/mL, an AUC(0-t) (120 mg, Continuous Dosing, 120 mg, Day 1, 5 patients, read-out: AUC0–24 Geometric Mean (%CV)) of 7600 ng·h/mL and a Cmax [12] of 876 ng/mL. The Tmax [12] was 2 h, the AUC(0-t) (120 mg, Continuous Dosing, 120 mg, Day 15, 1 patient, read-out: AUC0–8 Geometric Mean (%CV)) was 6430 ng·h/mL and the Cmax [13] was 982 ng/mL. It also gave a Tmax [13] of 8 h, an AUC(0-t) (120 mg, Intermittent Dose Schedule A, 120 mg, Day 8, 3 patients, read-out: AUC0–8 Geometric Mean (%CV)) of 3710 ng·h/mL and an AUC(0-t) (120 mg, Intermittent Dose Schedule A, 120 mg, Day 8, 3 patients, read-out: AUC0–24 Geometric Mean (%CV)) of 8940 ng·h/mL. It also gave a Cmax [14] of 872 ng/mL, a Tmax [14] of 1 h and an AUC(0-t) (120 mg, Intermittent Dose Schedule A, 120 mg, Day -3, 4 patients, read-out: AUC0–8 Geometric Mean (%CV)) of 2590 ng·h/mL.
